Literature values, collected in US11291658B2, “Use of gaboxadol in the treatment of diabetes and related conditions” (Ovid Therapeutics Inc., priority 2017, dated 2022).

Assays:
[1] = treatment of insomnia, three-month efficacy study
[2] = patients with a history of drug abuse who received gaboxadol
[3] = test system: streptozotocin-induced diabetic rats with moderate to severe hyperglycemia; details: Gomez et al. 1999

For `Oc1noc2c1CCNC2` [gaboxadol, 4,5,6,7-tetrahydroisoxazolo [5,4-c]pyridine-3-ol], the “effects in sleep onset and sleep maintenance” value [1] is listed as “failed to show significant effects”, the psychiatric adverse events [2] is listed as “steep increase in psychiatric adverse events” and the hypoglycemic effect [3] is listed as “very mild and could only be seen in the moderately hyperglycemic rats”.
